Laboratory results: patent publication US9668962B2, “Compositions and related methods for oral wellness” (NOWSystem, Inc., priority 2012, dated 2017)

How the values were obtained:
S. mutans [1] = assay: zone of inhibition on blood agar, drop technique and line method (Example 2); type: cell-based, Streptococcus mutans; conditions: control, 3 ul of 20%; after 3 days of incubation
Method: (§1) Experimental Design: Blood agar (for the 3 anaerobic bacteria, 1 facultative bacterium and 1 aerobic yeast; Fisher Scientific) plates were individually swabbed with fresh 24 h broth cultures of C. albicans, P. gingivalis, P. intermedia, F. nucleatum and S. mutans to provide a confluent lawn of microbial growth. […] Assays were conducted in duplicate and undiluted and 1:5 and 1:10 dilutions of the solutions and sterile saline (negative control) were used. The plates were incubated agar-side up at 37° C. in a GasPak anaerobic jar or in 5% CO2 for 72 h. Plates were examined at 72 h for zones of inhibition of growth of the microbes. The diameter of each zone was measured in mm. The zones of inhibition of each dilution sample were compared to the zones of control saline without antimicrobial components. If the zones of the solutions were the same size (or smaller) than the inhibition zones from the control saline than there was judged no inhibition of antimicrobial activity by the antimicrobial solutions. Conversely, if the zones of the solutions were larger than the inhibition zones from the control saline than there was judged significant antimicrobial activity by the solutions. It was anticipated that there will be significant inhibition of microbial growth by at least some of the antimicrobial wheat grass products. […]

P. gingivalis [2] = assay: as above; type: cell-based, Porphyromonas gingivalis; conditions: control, 3 ul of 20%; after 3 days of incubation
Method: Experimental Design: Blood agar (for the 3 anaerobic bacteria, 1 facultative bacterium and 1 aerobic yeast; Fisher Scientific) plates were individually swabbed with fresh 24 h broth cultures of C. albicans, P. gingivalis, P. intermedia, F. nucleatum and S. mutans to provide a confluent lawn of microbial growth. Five minutes after swabbing the plates (to allow the inoculum to absorb into the agar), the test and control specimens ([…]) onto designated places on the plates and allowed to adsorb (or adhere, in the case of the undiluted sera) into the agar. Assays were conducted in duplicate and undiluted and 1:5 and 1:10 dilutions of the solutions and sterile saline (negative control) were used. The plates were incubated agar-side up at 37° C. in a GasPak anaerobic jar or in 5% CO2 for 72 h. Plates were examined at 72 h for zones of inhibition of growth of the microbes. The diameter of each zone was measured in mm. The zones of inhibition of each dilution sample were compared to the zones of control saline without antimicrobial components. If the zones of the solutions were the same size (or smaller) than the inhibition zones from the control saline than there was judged no inhibition of antimicrobial activity by the antimicrobial solutions. […]

P. intermedia [3] = assay: as above; type: cell-based, Prevotella intermedia; conditions: control, 3 ul of 20%; after 3 days of incubation
Method: Experimental Design: Blood agar (for the 3 anaerobic bacteria, 1 facultative bacterium and 1 aerobic yeast; Fisher Scientific) plates were individually swabbed with fresh 24 h broth cultures of C. albicans, P. gingivalis, P. intermedia, F. nucleatum and S. mutans to provide a confluent lawn of microbial growth. Five minutes after swabbing the plates (to allow the inoculum to absorb into the agar), the test and control specimens ([…] adhere, in the case of the undiluted sera) into the agar. Assays were conducted in duplicate and undiluted and 1:5 and 1:10 dilutions of the solutions and sterile saline (negative control) were used. The plates were incubated agar-side up at 37° C. in a GasPak anaerobic jar or in 5% CO2 for 72 h. Plates were examined at 72 h for zones of inhibition of growth of the microbes. The diameter of each zone was measured in mm. The zones of inhibition of each dilution sample were compared to the zones of control saline without antimicrobial components. If the zones of the solutions were the same size (or smaller) than the inhibition zones from the control saline than there was judged no inhibition of antimicrobial activity by the antimicrobial solutions. Conversely, if the zones of the solutions were larger than the inhibition zones from the control saline than there was judged significant antimicrobial activity by the solutions. […]

F. nucleatum [4] = assay: as above; type: cell-based, Fusobacterium nucleatum; conditions: control, 3 ul of 20%; after 3 days of incubation
Method: as §1

S. mutans [5] = assay: zone of inhibition on blood agar, drop technique and line method (Example 3); type: cell-based, Streptococcus mutans; conditions: control spot, dilution not given; after 5 days of incubation
Method: (§2) Experimental Design: Blood agar (for the 3 anaerobic bacteria, 3 facultative bacteria and 1 aerobic yeast; Fisher Scientific) plates were individually swabbed with fresh 24 h broth cultures of C. rectus, Aggregatibacter actinomycetemcomitans (A.a), C. albicans, P. gingivalis, P. intermedia, F. nucleatum and S. mutans to provide a confluent lawn of microbial growth. Five minutes after swabbing the plates (to allow the inoculum to absorb into the agar), the test and control specimens (see below) were aseptically pipetted (5 ul) onto designated places on the plates and allowed to adsorb (or adhere, in the case of the undiluted sera) into the agar. Assays were conducted in duplicate and undiluted and 1:5 and 1:10 dilutions of the solutions and sterile saline (negative control) and chlorhexidine (CHX) were used. […] The diameter of each zone was measured in mm. The zones of inhibition of each dilution sample were compared to the zones of control saline without antimicrobial components. If the zones of the solutions were the same size (or smaller) than the inhibition zones from the control saline than there was judged no inhibition of antimicrobial activity by the antimicrobial solutions. Conversely, if the zones of the solutions were larger than the inhibition zones from the control saline than there was judged significant antimicrobial activity by the solutions. […]

C. albicans = assay: as above; type: cell-based, Candida albicans; conditions: control spot, dilution not given; after 5 days of incubation
Method: as §2

P. gingivalis [6] = assay: as above; type: cell-based, Porphyromonas gingivalis; conditions: control spot, dilution not given; after 5 days of incubation
Method: as §2

P. intermedia [7] = assay: as above; type: cell-based, Prevotella intermedia; conditions: control spot, dilution not given; after 5 days of incubation
Method: as §2

F. nucleatum [8] = assay: as above; type: cell-based, Fusobacterium nucleatum; conditions: control spot, dilution not given; after 5 days of incubation
Method: as §2

[9] = test system: Aggregatibacter actinomycetemcomitans (A.a); assay: as above; type: cell-based; conditions: control spot, dilution not given; after 5 days of incubation
Method: as §2

C. rectus = assay: as above; type: cell-based, Campylobacter rectus; conditions: control spot, dilution not given; after 5 days of incubation
Method: as §2, with “The” for “The diameter of each zone was measured in mm. The”

[10] = test system: C. rectus, Aggregatibacter actinomycetemcomitans (A.a), C. albicans, P. gingivalis, P. intermedia, F. nucleatum and S. mutans; assay: in vitro antimicrobial activity, summary over the seven microbes (Example 3); type: cell-based; conditions: overall summary of Example 3
Method: Experimental Design: Blood agar (for the 3 anaerobic bacteria, 3 facultative bacteria and 1 aerobic yeast; Fisher Scientific) plates were individually swabbed with fresh 24 h broth cultures of C. rectus, Aggregatibacter actinomycetemcomitans (A.a), C. albicans, P. gingivalis, P. intermedia, F. nucleatum and S. mutans to provide a confluent lawn of microbial growth. Five minutes after swabbing the plates (to allow the inoculum to absorb into the agar), the test and control specimens (see below) were aseptically pipetted (5 ul) onto designated places on the plates and allowed to adsorb (or adhere, in the case of the undiluted sera) into the agar. Assays were conducted in duplicate and undiluted and 1:5 and 1:10 dilutions of the solutions and sterile saline (negative control) and chlorhexidine (CHX) were used. The plates were incubated agar-side up at 37° C. in a GasPak anaerobic jar or in 5% CO2 for 72 h. Plates were examined at 72 h for zones of inhibition of growth of the microbes. The diameter of each zone was measured in mm. The zones of inhibition of each dilution sample were compared to the zones of control saline without antimicrobial components. If the zones of the solutions were the same size (or smaller) than the inhibition zones from the control saline than there was judged no inhibition of antimicrobial activity by the antimicrobial solutions. […]

Compound [H]/N=C(\N/C(=N/[H])NCCCCCCNC(=N)NC(=N)Nc1ccc(Cl)cc1)Nc1ccc(Cl)cc1 [Chlorhexidine, chlorhexidine] has a zone of inhibition (S. mutans [1]) of 19 mm, a zone of inhibition (P. gingivalis [2]) of 25 mm and a zone of inhibition (P. intermedia [3]) of 24 mm. The zone of inhibition (F. nucleatum [4]) was 40 mm, the “diameter of zone of inhibition” value (S. mutans [5]) was 16 mm and the “circumference of zone of inhibition” value (C. albicans) was 20 mm. The “circumference of zone of inhibition” value (P. gingivalis [6]) was 14 mm, the “diameter of zone of inhibition” value (P. intermedia [7]) was 20 mm and the “circumference of zone of inhibition” value (F. nucleatum [8]) was 15 mm. The “circumference of zone of inhibition” value [9] was 11 mm, the “circumference of zone of inhibition” value (C. rectus) was 16 mm and the “inhibition of growth of the seven species, in words” value [10] was “inhibited the microbial growth of each species”.
